Measurements as given in ChEMBL document CHEMBL3525934 (Drug Metab Dispos, 2013).

Key:
Format in all cases: ADME
Conditions in all cases: 0.5 h
Cytochrome P450 2A6 = target: T1, Cytochrome P450 2A6 (Homo sapiens, UniProt P11509); test: Drug metabolism in supersomes expressing human recombinant CYP2A6 assessed as enzyme-mediated cyanide adduct formation at 100 uM after 30 mins measured per nmol of P450 by HPLC analysis in presence of KCN
T1 sequence (P11509 whole entry): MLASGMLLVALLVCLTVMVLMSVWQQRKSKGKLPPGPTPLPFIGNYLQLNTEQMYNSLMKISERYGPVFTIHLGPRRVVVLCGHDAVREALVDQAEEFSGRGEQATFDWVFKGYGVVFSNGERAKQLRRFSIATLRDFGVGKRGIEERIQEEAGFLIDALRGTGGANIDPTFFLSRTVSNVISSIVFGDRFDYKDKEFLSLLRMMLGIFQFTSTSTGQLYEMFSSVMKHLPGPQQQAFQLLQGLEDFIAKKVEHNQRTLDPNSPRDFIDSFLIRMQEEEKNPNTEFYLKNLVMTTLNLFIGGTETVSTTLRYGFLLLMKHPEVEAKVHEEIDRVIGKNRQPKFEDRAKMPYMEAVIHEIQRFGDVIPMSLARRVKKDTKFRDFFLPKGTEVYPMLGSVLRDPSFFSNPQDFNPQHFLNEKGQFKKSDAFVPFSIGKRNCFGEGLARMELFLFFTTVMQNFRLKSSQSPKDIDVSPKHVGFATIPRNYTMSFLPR

Cytochrome P450 2C18 [1] = target: T2, Cytochrome P450 2C18 (Homo sapiens, UniProt P33260); test: Drug metabolism in supersomes expressing human recombinant CYP2C18 assessed as enzyme-mediated cyanide adduct formation at 100 uM after 30 mins measured per nmol of P450 by HPLC analysis in presence of KCN
T2 sequence (P33260 whole entry): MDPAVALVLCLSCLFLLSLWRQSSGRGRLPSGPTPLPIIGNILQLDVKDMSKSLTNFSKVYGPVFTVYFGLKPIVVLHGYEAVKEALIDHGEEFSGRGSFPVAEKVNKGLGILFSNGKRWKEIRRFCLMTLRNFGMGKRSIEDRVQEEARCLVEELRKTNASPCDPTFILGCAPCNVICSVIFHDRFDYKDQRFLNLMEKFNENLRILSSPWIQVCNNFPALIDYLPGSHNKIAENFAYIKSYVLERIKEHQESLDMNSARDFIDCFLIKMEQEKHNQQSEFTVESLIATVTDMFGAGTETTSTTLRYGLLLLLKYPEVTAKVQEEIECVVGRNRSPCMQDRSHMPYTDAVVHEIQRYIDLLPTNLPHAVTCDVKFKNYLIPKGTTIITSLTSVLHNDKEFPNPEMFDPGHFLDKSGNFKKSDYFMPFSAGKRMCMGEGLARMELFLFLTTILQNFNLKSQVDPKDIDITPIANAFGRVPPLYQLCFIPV

Cytochrome P450 1A2 [2] = target: T3, Cytochrome P450 1A2 (Homo sapiens, UniProt P05177); test: Drug metabolism in supersomes expressing human recombinant CYP1A2 assessed as enzyme-mediated N-desmethylclozapine metabolite formation at 10 uM after 30 mins measured per nmol of P450 by HPLC analysis
T3 sequence (P05177 whole entry): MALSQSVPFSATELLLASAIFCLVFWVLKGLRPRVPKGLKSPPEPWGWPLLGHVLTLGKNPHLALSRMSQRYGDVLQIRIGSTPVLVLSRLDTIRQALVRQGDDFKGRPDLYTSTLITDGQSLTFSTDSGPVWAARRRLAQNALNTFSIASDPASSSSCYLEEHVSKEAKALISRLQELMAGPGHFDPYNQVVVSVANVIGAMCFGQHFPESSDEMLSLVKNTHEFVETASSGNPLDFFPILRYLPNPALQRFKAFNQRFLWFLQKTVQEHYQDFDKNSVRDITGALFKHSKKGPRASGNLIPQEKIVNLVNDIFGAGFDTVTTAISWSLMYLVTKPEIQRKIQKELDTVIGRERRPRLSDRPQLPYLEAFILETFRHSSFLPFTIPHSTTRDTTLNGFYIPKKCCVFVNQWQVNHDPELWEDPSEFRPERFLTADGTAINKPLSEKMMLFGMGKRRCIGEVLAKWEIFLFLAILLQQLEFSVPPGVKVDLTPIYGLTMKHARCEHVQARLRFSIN

Cytochrome P450 2C18 [3] = target: T2, Cytochrome P450 2C18; test: Drug metabolism in supersomes expressing human recombinant CYP2C18 assessed as enzyme-mediated N-desmethylclozapine metabolite formation at 10 uM after 30 mins measured per nmol of P450 by HPLC analysis
Cytochrome P450 2C9 = Cytochrome P450 2C9 (Homo sapiens, UniProt P11712); test: Drug metabolism in supersomes expressing human recombinant CYP2C9 assessed as enzyme-mediated clozapine-N-oxide metabolite formation at 10 uM after 30 mins measured per nmol of P450 by HPLC analysis
Sequence of Cytochrome P450 2C9 (P11712 whole entry): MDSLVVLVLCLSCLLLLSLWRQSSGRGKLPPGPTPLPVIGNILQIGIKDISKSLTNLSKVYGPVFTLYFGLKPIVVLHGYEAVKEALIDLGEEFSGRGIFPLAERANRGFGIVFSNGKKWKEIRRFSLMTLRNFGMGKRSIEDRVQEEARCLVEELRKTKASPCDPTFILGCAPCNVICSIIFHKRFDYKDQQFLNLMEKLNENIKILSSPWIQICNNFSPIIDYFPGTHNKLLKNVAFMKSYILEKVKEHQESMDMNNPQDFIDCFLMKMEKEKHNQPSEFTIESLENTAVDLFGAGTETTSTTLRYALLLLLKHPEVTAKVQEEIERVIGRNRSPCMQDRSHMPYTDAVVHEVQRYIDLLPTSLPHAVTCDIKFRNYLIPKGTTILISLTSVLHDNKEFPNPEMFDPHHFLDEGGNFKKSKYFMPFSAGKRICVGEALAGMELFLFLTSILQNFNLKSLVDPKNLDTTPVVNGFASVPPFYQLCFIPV

Cytochrome P450 1A2 [4] = target: T3, Cytochrome P450 1A2; test: Drug metabolism in supersomes expressing human recombinant CYP1A2 assessed as enzyme-mediated clozapine-N-oxide metabolite formation at 100 uM after 30 mins measured per nmol of P450 by HPLC analysis
Cytochrome P450 2C18 [5] = target: T2, Cytochrome P450 2C18; test: Drug metabolism in supersomes expressing human recombinant CYP2C18 assessed as enzyme-mediated clozapine-N-oxide metabolite formation at 100 uM after 30 mins measured per nmol of P450 by HPLC analysis
Cytochrome P450 1A2 [6] = target: T3, Cytochrome P450 1A2; test: Drug metabolism in supersomes expressing human recombinant CYP1A2 assessed as enzyme-mediated total GSH conjugate formation at 100 uM after 30 mins measured per nmol of P450 by HPLC analysis in presence of GSH and hGST P1-1
Cytochrome P450 2C8 = target: T4, Cytochrome P450 2C8 (Homo sapiens, UniProt P10632); test: Drug metabolism in supersomes expressing human recombinant CYP2C8 assessed as enzyme-mediated N-desmethylclozapine metabolite formation at 100 uM after 30 mins measured per nmol of P450 by HPLC analysis
T4 sequence (P10632 whole entry): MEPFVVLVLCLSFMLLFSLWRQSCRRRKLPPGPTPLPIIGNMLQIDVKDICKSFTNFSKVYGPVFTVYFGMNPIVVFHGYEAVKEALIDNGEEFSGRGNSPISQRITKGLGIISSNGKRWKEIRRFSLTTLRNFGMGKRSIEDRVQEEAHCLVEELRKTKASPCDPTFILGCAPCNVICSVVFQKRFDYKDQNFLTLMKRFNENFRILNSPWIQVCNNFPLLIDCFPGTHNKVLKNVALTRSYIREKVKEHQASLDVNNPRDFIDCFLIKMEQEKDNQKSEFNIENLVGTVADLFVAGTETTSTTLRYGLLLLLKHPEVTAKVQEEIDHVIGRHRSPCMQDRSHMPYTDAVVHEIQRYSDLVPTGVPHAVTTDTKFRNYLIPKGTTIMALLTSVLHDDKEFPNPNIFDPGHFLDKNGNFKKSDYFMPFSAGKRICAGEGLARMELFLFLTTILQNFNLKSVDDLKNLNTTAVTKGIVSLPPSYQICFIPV

Cytochrome P450 2C18 [7] = target: T2, Cytochrome P450 2C18; test: Drug metabolism in supersomes expressing human recombinant CYP2C18 assessed as enzyme-mediated N-desmethylclozapine metabolite formation at 100 uM after 30 mins measured per nmol of P450 by HPLC analysis
Cytochrome P450 2C19 = Cytochrome P450 2C19 (Homo sapiens, UniProt P33261); test: Drug metabolism in supersomes expressing human recombinant CYP2C19 assessed as enzyme-mediated N-desmethylclozapine metabolite formation at 100 uM after 30 mins measured per nmol of P450 by HPLC analysis
Sequence of Cytochrome P450 2C19 (P33261 whole entry): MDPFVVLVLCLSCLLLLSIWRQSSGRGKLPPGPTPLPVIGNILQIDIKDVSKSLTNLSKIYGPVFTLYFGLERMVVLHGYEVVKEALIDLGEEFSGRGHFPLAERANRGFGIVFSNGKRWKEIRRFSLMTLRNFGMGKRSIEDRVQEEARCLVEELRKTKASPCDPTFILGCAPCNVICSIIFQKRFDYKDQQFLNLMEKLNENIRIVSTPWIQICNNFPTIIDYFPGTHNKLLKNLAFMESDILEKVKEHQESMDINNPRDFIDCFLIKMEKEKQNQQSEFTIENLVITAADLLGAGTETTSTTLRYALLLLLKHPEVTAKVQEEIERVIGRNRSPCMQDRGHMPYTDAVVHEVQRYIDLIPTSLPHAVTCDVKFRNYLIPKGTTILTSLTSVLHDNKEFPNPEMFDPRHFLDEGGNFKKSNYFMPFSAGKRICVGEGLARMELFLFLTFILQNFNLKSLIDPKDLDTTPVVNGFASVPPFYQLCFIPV

Structure (SMILES): CN1CCN(C2=Nc3cc(Cl)ccc3Nc3ccccc32)CC1 [CLOZAPINE]
- Drug metabolism (Cytochrome P450 2A6): 0.17 nmol/min
- Drug metabolism (Cytochrome P450 2C18 [1]): 0.41 nmol/min
- Drug metabolism (Cytochrome P450 1A2 [2]): 1.12 nmol/min
- Drug metabolism (Cytochrome P450 2C18 [3]): 4.08 nmol/min/nmol P450
- Drug metabolism (Cytochrome P450 2C9): 0.065 nmol/min
- Drug metabolism (Cytochrome P450 1A2 [4]): 3.7 nmol/min
- Drug metabolism (Cytochrome P450 2C18 [5]): 0.065 nmol/min
- Drug metabolism (Cytochrome P450 1A2 [6]): 0.25 nmol/min
- Drug metabolism (Cytochrome P450 2C8): 0.89 nmol/min
- Drug metabolism (Cytochrome P450 2C18 [7]): 5.71 nmol/min/nmol P450
- Drug metabolism (Cytochrome P450 2C19): 5.11 nmol/min
